Counter-ions that a name gives are not always drawn.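 Five compound concentrations were applied to cells in 96-well plates for 48 hours; endpoints were derived by simple linear interpolation of the resulting dose-response curve. GI50 = concentration required for 50% inhibition of growth.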 Activity calls are given as the source filed them. Rule as the data show it: active = GI50 up to about 1.1 µM and inactive = higher.
Legend:
Assay in all cases: NCI-60 cell line screen, 48 h
SF-539 = tested on: SF-539
SNB-75 = tested on: SNB-75
LOX IMVI = tested on: LOX IMVI
HT-29 = tested on: HT-29
SW-620 = tested on: SW-620
A549 = tested on: A549
HL-60 = tested on: HL-60
CCRF-CEM = tested on: CCRF-CEM
KM12 = tested on: KM12
SK-MEL-2 = tested on: SK-MEL-2
SK-OV-3 = tested on: SK-OV-3
SF-268 = tested on: SF-268
HCC 2998 = tested on: HCC 2998
NCI-H522 = tested on: NCI-H522
RPMI-8226 = tested on: RPMI-8226
HOP-92 = tested on: HOP-92
NCI-H460 = tested on: NCI-H460
HCT-116 = tested on: HCT-116
SR = tested on: SR

Measured: GI50

O=C1OC(CCCl)(c2ccccc2)CC1CN1CCOCC1 (centres undefined)
inactive: SF-539 27.2 µM | SNB-75 15.4 µM | LOX IMVI 27.3 µM | HT-29 18.4 µM | SW-620 17 µM | A549 80.5 µM | HL-60 9.77 µM | CCRF-CEM 11.4 µM | KM12 20.2 µM | SK-MEL-2 24.3 µM | SK-OV-3 > 100 µM | SF-268 41.4 µM | HCC 2998 26.3 µM | NCI-H522 18.7 µM | RPMI-8226 3.84 µM | HOP-92 16.6 µM | NCI-H460 67.3 µM

CC(=O)NNc1ncc(C(=O)/C=C/c2ccccc2C)s1
inactive: SF-539 > 100 µM | SNB-75 > 100 µM | LOX IMVI > 100 µM | HT-29 > 100 µM | SW-620 > 100 µM | A549 > 100 µM | HL-60 > 100 µM | CCRF-CEM > 100 µM | KM12 > 100 µM | SK-MEL-2 > 100 µM | SK-OV-3 > 100 µM | SF-268 > 100 µM | HCC 2998 > 100 µM | NCI-H522 > 100 µM | RPMI-8226 > 100 µM | HOP-92 > 100 µM | NCI-H460 > 100 µM

O=C(CC1(O)C(=O)Nc2c(Cl)ccc(Cl)c21)c1ccc(Cl)cc1Cl (centres undefined)
inactive: SF-539 19.2 µM | SNB-75 16.7 µM | LOX IMVI 14.3 µM | HCT-116 19.1 µM | HT-29 15.3 µM | SW-620 14.1 µM | A549 23.5 µM | KM12 16.5 µM | SK-MEL-2 21.3 µM | SK-OV-3 21.9 µM | SF-268 27.6 µM | HCC 2998 15.7 µM | RPMI-8226 19.5 µM | HOP-92 21 µM | NCI-H460 20.5 µM

O=C(/N=C(/Nc1ccccc1)SCCS/C(=N\C(=O)c1ccccc1)Nc1ccccc1)c1ccccc1
inactive: SF-539 68.2 µM | SNB-75 29.5 µM | LOX IMVI 58.6 µM | HCT-116 46.8 µM | HT-29 35.6 µM | SW-620 > 100 µM | A549 65.2 µM | CCRF-CEM 64.6 µM | KM12 62.5 µM | SK-MEL-2 > 100 µM | SF-268 41.5 µM | HCC 2998 34.9 µM | NCI-H522 22.2 µM | RPMI-8226 48.2 µM | HOP-92 16.8 µM | NCI-H460 44.3 µM

Oc1cc(-c2ccccc2)nc2cc(Cl)ccc12
inactive: HT-29 2 µM | SF-268 1.21 µM
active: SF-539 0.412 µM | SNB-75 0.352 µM | LOX IMVI 0.869 µM | HCT-116 0.339 µM | SW-620 0.34 µM | A549 0.515 µM | HL-60 0.24 µM | CCRF-CEM 0.432 µM | KM12 0.695 µM | SK-MEL-2 0.445 µM | SK-OV-3 0.493 µM | HCC 2998 0.897 µM | NCI-H522 0.112 µM | RPMI-8226 0.422 µM | HOP-92 0.376 µM | NCI-H460 0.417 µM

O=C1NC2(CCCC2)/C(=N\O)C12CCCC2
inactive: SF-539 > 100 µM | SNB-75 > 100 µM | LOX IMVI > 100 µM | HCT-116 > 100 µM | HT-29 > 100 µM | SW-620 > 100 µM | A549 > 100 µM | HL-60 > 100 µM | CCRF-CEM > 100 µM | KM12 > 100 µM | SK-MEL-2 > 100 µM | SK-OV-3 > 100 µM | SF-268 > 100 µM | SR > 100 µM | NCI-H522 > 100 µM | HOP-92 > 100 µM | NCI-H460 > 100 µM

NCCOCn1cc(Cc2cccc(OCc3ccccc3)c2)c(=O)[nH]c1=O
inactive: SF-539 > 100 µM | SNB-75 79.8 µM | LOX IMVI 39 µM | HCT-116 86.7 µM | HT-29 71.1 µM | SW-620 > 100 µM | A549 > 100 µM | HL-60 55.5 µM | CCRF-CEM 44.1 µM | KM12 > 100 µM | SK-MEL-2 > 100 µM | SK-OV-3 > 100 µM | HCC 2998 42.2 µM | RPMI-8226 > 100 µM | HOP-92 > 100 µM | NCI-H460 63.5 µM

O=c1/c(=C/c2ccc(Cl)cc2Cl)sc2nc3ccccc3n12
inactive: SF-539 > 100 µM | SNB-75 > 100 µM | LOX IMVI > 100 µM | HCT-116 71.9 µM | HT-29 > 100 µM | SW-620 > 100 µM | A549 > 100 µM | HL-60 > 100 µM | CCRF-CEM > 100 µM | KM12 > 100 µM | SK-MEL-2 > 100 µM | SK-OV-3 > 100 µM | SF-268 > 100 µM | HCC 2998 > 100 µM | NCI-H522 > 100 µM | HOP-92 > 100 µM | NCI-H460 > 100 µM

COC(=O)C1=CCS(=O)(=O)C1
inactive: SF-539 > 100 µM | SNB-75 > 100 µM | LOX IMVI > 100 µM | HCT-116 > 100 µM | HT-29 > 100 µM | SW-620 > 100 µM | A549 > 100 µM | HL-60 > 100 µM | CCRF-CEM > 10 µM | KM12 > 100 µM | SK-MEL-2 > 100 µM | SK-OV-3 > 100 µM | SF-268 > 100 µM | HCC 2998 > 100 µM | RPMI-8226 > 100 µM | HOP-92 > 100 µM | NCI-H460 > 100 µM

O=c1cc2n(c(=O)[nH]1)C1OC(C(O)C1O)[C@H]2CCO (some centres undefined)
inactive: SF-539 > 100 µM | LOX IMVI > 100 µM | HT-29 > 100 µM | SW-620 > 100 µM | A549 > 100 µM | HL-60 > 100 µM | CCRF-CEM > 100 µM | KM12 > 100 µM | SK-MEL-2 > 100 µM | SK-OV-3 > 100 µM | SF-268 > 100 µM | SR > 100 µM | NCI-H522 > 100 µM | HOP-92 > 100 µM | NCI-H460 > 100 µM

Cc1nccc2c1[nH]c1cc(O)ccc12 [HARMOL HYDROCHLORIDE]
inactive: SF-539 73.3 µM | SNB-75 33 µM | LOX IMVI 45.6 µM | HCT-116 41.5 µM | HT-29 56.5 µM | SW-620 39.1 µM | A549 44.8 µM | HL-60 29 µM | CCRF-CEM 38.5 µM | KM12 55.8 µM | SK-MEL-2 > 100 µM | SK-OV-3 > 100 µM | SF-268 > 100 µM | HCC 2998 91 µM | RPMI-8226 44.5 µM | HOP-92 27.5 µM | NCI-H460 37.4 µM

CCOc1cn(C2OC(CO)C(O)C2O)c(=O)[nH]c1=O (centres undefined)
inactive: SNB-75 > 100 µM | LOX IMVI > 100 µM | HCT-116 > 100 µM | HT-29 > 100 µM | SW-620 31.3 µM | A549 > 100 µM | HL-60 > 100 µM | CCRF-CEM > 100 µM | KM12 > 100 µM | SK-MEL-2 > 100 µM | SK-OV-3 > 100 µM | SF-268 > 100 µM | HCC 2998 > 100 µM | NCI-H522 > 100 µM | RPMI-8226 > 100 µM | HOP-92 > 100 µM | NCI-H460 > 100 µM

— ChEMBL document CHEMBL1201862, “PubChem BioAssay data set” (2004)
